For one assay, the system named is remaining HDACs. Put plainly: HDAC panel HDAC1 to HDAC10, remaining HDACs (other than HDAC6 and HDAC8). It is filed as biochemical. As to conditions: about […] to >10 μM, read-out: IC50 against the remaining HDACs. As to the method: Dose-response studies for HDAC isoforms were conducted at Reaction Biology Corporation. All assays are based on the same principle of a two-step reaction: first, the substrate with the acetylated lysine side chain is incubated with a sample containing HDAC enzyme, to produce the deacetylated products, which are then digested in the second step by the addition of the developer to produce the fluorescent signal proportional to the amount of deacetylated substrates. Recombinant proteins HDAC1, HDAC2, HDAC3, HDAC4, HDAC5, HDAC6, HDAC7, HDAC8, HDAC9, and HDAC10 were incubated with a test compound for 5min, and then the fluorophore-conjugated substrate was added to the wells and incubated for 30 min to 2 h for different HDACs. Reactions were performed in assay buffer (50 mM Tris-HCl, pH 8.0, 137 mM NaCl, 2.7 mM KCl, 1 mM MgCl2, 1 mg/mL BSA, 1% DMSO, pH 7.4) and fluorescence measurements were obtained approximately every 20 min for an hour using an Envision, Perkin-Elmer plate reader (Excitation 360 nm/Emission 460 nm). IC50 values and curve fits were obtained using (GraphPad Prism Software, Inc.).

Another assay concerns the target hHDAC8 (Homo sapiens, UniProt Q9BY41). Kind of assay: Thermal shift assay (SYPRO Orange). Format: binding. As to conditions: protein:compound 1:15; Tm without compound 41°C. As to the method:
(§1) The melting temperature (Tm) of human LSD1 and HDAC8 proteins were determined by fluorescence based thermal shift assay. Reaction mixture containing 0.5 μM protein, 5X SYPRO™ Orange Protein Gel Stain (Thermo Fisher Scientific Cat: S6650), compound at 10-fold excess for hLSD1, 15-fold excess for hHDAC8. The final volume made up with respective protein buffers. All experiments were done in triplicates at 50 μL reaction volume. The samples heated from 15°C to 95°C with an increment of 1°C per 30sec using CFX96™ Real-Time PCR Detection system–C1000 Thermal Cycler (Bio-Rad). Filters custom configured to the optimal excitation (492 nm) and emission (610 nm) wavelengths for SYPRO orange dye. Protein denaturation monitored by the increase in fluorescence signal emitted by SYPRO Orange. The SYPRO Orange binds to the exposed hydrophobic regions of protein undergoing thermal denaturation and corresponding fluorescence emissions are recorded as melt curves. The temperature corresponding to the inflection point, Tm is determined by calculating the first derivative from melt curve using CFX manager 3.1 software (Bio-Rad).

In a further assay the target is T1, human LSD1 (Homo sapiens, UniProt O60341).
T1 construct: Tm of full length LSD1 protein in the absence of compound was 43°C
Put plainly: Thermal shift assay (SYPRO Orange). Format: binding. As to conditions: protein:compound 1:10; Tm in the absence of compound 43°C. On the procedure: as §1

In another assay the test system is HT144. Put plainly: Cell proliferation assay (Alamar Blue). It is filed as cell-based. The following applies: Homo sapiens, HT-144; HT144, Melanoma, 144 h. On the procedure:
(§2) Cells were seeded in NUNC 96-well tissue culture plates (Life Technologies) in […] culture medium and incubated at 37°C/ 5% CO2 to adhere to plastic for 18–24 h. […] One set of plates (designated for the 144 h read out) were centrifuged at low speed for 30 seconds, and respective compounds were replenished in fresh media and incubated for another 68–72 h at 37°C/ 5% CO2. […] The inhibition curve was then fitted by plotting % inhibition against log concentration in GraphPad Prism 5.0 (GraphPad Software, Inc.) and the GI50 value of compound was determined. Data are representative of at least two independent experiments.
Background: The colour change of resazurin is a common sign of viable cells or microbes.

In the next assay the test system is RPMI-7591. Put plainly: Cell proliferation assay (Alamar Blue). Format: cell-based. The following applies: RPMI-7591, Melanoma, 144 h. As to the method:
as §2

In a further assay the test system is SKMeI2. Put plainly: Cell proliferation assay (Alamar Blue). Format: cell-based. As to conditions: SKMeI2, Melanoma, 144 h. As to the method:
as §2

Assay [1] relates to panel of non-small lung cancer, melanoma, and hepatocellular carcinoma tumor cell lines. Put plainly: Cell proliferation assay, solid tumor cell line panel. Format: cell-based. The following applies: 144 h; 6 days; range over cell lines; read-out: EC50 values across solid tumor panel. On the procedure:
as §2

The test system of another assay is acetylation of α-Tubulin. Kind of assay: Western blot of tubulin acetylation in HEL92.1.7 cells. Format: cell-based, human. As to conditions: HEL92.1.7, 3 to 48 h, 8 point dose response from 10 μM. As to the method:
Cells were harvested and washed twice with cold PBS after the indicated treatments. Cell pellets were lysed in 30μl of lysis buffer (50 mM Tris-HCl, pH 7.4, 150 mM NaCl, 1% Triton X-100, 0.1% SDS, 1 mM EDTA, 1 mM Na3VO4, 1 mM NaF, and protease inhibitor cocktail) for 30 min on ice. Lysates were centrifuged at 12,000 ×g for 20 min at 4°C, and the protein content in the supernatants was determined using the Bradford reagent (Bio-Rad). Equal amount of protein lysate was resolved by SDS-PAGE and transferred onto a nitrocellulose membrane (Bio-Rad). Membranes were blocked with 5% non-fat milk powder in PBS-Tween 20 buffer for 1 h, followed by incubation with primary antibody at 4°C overnight. Membranes were washed in PBST and then incubated with HRP-conjugated anti-goat or mouse anti- IgG (Cell Signalling Technology) antibody and detected using the Millipore ECL Western Blot substrate. β-actin was used as a loading control. Antibodies were obtained from the following sources: Acetyl-α- Tubulin (Cell Signalling Technology, […], 1:500), β-actin (Santa Cruz Biotechnology, sc47778, 1:2000), HRP-conjugated secondary antibodies (Santa Cruz Biotechnology, 1:2000 for β-actin blots, 1:1000 for all others). Blots shown are representative of at least two independent experiments.
(In general: Immunoblotting shows a protein as a band on a membrane.)

A further assay relates to CT-26 syngeneic tumors. Kind of assay: CT-26 mouse colon cancer syngeneic model. Format: in vivo, BALB/c mice. As to conditions: 14 d. As to the method:
For CT-26 syngeneic mouse colon cancer model female BALB/c (6–8 weeks old, Vivo Biotech, India) were used. 1x10^6 CT26 tumor cells in 100 μL of serum-free medium mixed with 1:1 ratio of matrigel were injected s.c. into the right flank of mice. […] During the experiment, body weights were measured 2–3 times a week and tumor volume was measured using callipers every other day in three dimensions. Tumor volume was calculated from the pi-based ellipsoid volume formula π/6*length*width*height. Mice were culled when the tumor volume reached either the ethical limit of 2000 mm^3 or if the tumor was ulcerated. The percentage change in tumor volume from baseline was used to assess the response to treatment. Tumor measurements were performed in a blinded manner throughout the study.

A value given as a limit tells only on which side of the number the result lay.

hHDAC8, sequence (Q9BY41 whole entry): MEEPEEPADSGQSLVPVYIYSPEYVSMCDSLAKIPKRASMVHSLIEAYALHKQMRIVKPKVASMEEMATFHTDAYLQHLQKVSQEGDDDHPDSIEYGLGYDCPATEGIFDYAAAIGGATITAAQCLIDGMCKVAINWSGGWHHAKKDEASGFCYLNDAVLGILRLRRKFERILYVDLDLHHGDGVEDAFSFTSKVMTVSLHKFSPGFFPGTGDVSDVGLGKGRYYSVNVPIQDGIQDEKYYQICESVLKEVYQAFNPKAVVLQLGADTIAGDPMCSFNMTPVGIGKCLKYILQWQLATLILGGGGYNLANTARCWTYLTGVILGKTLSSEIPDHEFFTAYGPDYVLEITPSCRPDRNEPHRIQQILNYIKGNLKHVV

With `O=C(NO)c1ccc(CCCN2CCC(CN[C@H]3C[C@@H]3c3ccccc3)CC2)cc1` (relative stereo) [JBI-097], the concentration for half-maximal inhibition (IC50) (commonly the concentration that inhibits the measured activity by half) with remaining HDACs is at least 1.1 µM. Moreover, at hHDAC8, the “Tm of HDAC8 incubated with compound” value was found to be 47 °C. Further, the “Tm of LSD1 incubated with compound” value at human LSD1 is 55 °C. Besides, the EC50 (as a rule, the midpoint of the concentration-response curve) is 3.14 µM in the assay with HT144, 8.09 µM in the assay with RPMI-7591, 1.83 µM with SKMeI2 and 1.06 to 8.09 µM in assay [1]. Further, the “acetylation of α-Tubulin” value in the assay on acetylation of α-Tubulin is “time and concentration dependent increase”. The TGI (usually the reduction of tumour growth relative to the control group) in the assay on CT-26 syngeneic tumors (JBI-097 20 mg/kg PO in combination with anti-PD-L1 100 μg/animal IP Q4D) is recorded as 76%; in the assay with CT-26 syngeneic tumors (JBI-097 alone, 20 mg/kg PO, 5 days on 2 days off) it was 50%.

The record behind these values is PMC9810167, “Novel dual LSD1/HDAC6 inhibitor for the treatment of cancer” (PLOS ONE, 2023).
